Where “and” joins values, the source holds several entries; their conditions need not be identical. Equal values may be shown once. Read-outs that look alike come from different tables or passages of the source.

Assay [1] addresses PI3K-γ (Homo sapiens, UniProt P48736). The experiment in a line: PI3K-gamma fluorescence polarization assay. The following applies: read-out: IC50 PI3Kγ. (Fluorescence polarisation rises when a labelled molecule tumbles more slowly, as on binding a larger partner.)
Assay [2] concerns the target Human mTOR (FLAG-TOR) (Homo sapiens, UniProt P42345). The experiment in a line: mTOR kinase assay (DELFIA format, purified enzyme). As to conditions: read-out: IC50 mTOR. It is filed as biochemical.
Assay [3] has as its system human prostate PC3-mm2 tumor cell line. Put plainly: In vitro cell culture growth assay (MTS), PC3-mm2. It is filed as cell-based. As to conditions: Homo sapiens, PC3MM2, 72 h, MTS cell growth assay, three days after drug treatment, read-out: IC50 PC3-mm2.
Assay [4] concerns human breast MDA-MB-361 tumor cell line. The experiment in a line: In vitro cell culture growth assay (MTS), MDA-MB-361. The following applies: Homo sapiens, MTS cell growth assay, three days after drug treatment, read-out: IC50 MDA-MB-361. It is filed as cell-based. For orientation: Tetrazolium assays rely on reduction of a dye to a coloured formazan, in cell work by metabolically active cells.

Assay [5] concerns the target PI3K-α (Homo sapiens, UniProt P42336). The experiment in a line: PI3K-alpha fluorescence polarization assay. As to conditions: read-out: IC50 PI3Kα.
Setting [6] is: MDA-MB-361, 72 h, MDA-MB-361 cells.

Sequence of Human mTOR (FLAG-TOR) (P42345 1360-2549 limits assumed): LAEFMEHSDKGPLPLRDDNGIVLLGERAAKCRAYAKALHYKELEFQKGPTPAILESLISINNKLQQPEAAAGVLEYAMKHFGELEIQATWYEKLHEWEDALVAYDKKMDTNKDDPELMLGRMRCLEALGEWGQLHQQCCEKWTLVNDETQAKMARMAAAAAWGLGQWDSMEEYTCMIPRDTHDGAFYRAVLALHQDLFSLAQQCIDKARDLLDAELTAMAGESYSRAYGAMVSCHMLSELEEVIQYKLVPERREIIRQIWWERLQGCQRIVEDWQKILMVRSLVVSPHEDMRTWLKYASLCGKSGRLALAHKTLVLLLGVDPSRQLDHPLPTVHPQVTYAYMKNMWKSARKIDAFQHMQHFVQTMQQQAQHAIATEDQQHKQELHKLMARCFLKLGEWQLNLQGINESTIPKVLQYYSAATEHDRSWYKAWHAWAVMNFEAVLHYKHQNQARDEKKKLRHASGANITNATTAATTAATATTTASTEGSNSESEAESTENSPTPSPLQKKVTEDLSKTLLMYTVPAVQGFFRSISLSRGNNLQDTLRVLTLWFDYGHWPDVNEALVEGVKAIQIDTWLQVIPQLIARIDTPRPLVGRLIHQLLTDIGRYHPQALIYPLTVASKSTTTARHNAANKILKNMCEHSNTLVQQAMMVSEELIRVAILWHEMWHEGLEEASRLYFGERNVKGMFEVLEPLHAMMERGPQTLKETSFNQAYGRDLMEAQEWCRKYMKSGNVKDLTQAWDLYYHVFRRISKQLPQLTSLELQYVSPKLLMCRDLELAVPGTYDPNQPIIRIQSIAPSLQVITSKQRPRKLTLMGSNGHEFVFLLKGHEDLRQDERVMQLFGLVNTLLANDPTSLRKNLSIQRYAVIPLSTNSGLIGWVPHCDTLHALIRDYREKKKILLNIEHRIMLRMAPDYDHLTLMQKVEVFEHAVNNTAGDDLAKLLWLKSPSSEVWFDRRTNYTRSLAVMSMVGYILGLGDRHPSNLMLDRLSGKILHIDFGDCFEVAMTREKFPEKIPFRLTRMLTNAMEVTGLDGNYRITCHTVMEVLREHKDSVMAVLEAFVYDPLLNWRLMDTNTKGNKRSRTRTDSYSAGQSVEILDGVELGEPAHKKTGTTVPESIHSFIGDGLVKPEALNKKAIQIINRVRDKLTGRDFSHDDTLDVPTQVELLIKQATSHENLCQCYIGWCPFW
Sequence of PI3K-α (P42336 whole entry, species assumed): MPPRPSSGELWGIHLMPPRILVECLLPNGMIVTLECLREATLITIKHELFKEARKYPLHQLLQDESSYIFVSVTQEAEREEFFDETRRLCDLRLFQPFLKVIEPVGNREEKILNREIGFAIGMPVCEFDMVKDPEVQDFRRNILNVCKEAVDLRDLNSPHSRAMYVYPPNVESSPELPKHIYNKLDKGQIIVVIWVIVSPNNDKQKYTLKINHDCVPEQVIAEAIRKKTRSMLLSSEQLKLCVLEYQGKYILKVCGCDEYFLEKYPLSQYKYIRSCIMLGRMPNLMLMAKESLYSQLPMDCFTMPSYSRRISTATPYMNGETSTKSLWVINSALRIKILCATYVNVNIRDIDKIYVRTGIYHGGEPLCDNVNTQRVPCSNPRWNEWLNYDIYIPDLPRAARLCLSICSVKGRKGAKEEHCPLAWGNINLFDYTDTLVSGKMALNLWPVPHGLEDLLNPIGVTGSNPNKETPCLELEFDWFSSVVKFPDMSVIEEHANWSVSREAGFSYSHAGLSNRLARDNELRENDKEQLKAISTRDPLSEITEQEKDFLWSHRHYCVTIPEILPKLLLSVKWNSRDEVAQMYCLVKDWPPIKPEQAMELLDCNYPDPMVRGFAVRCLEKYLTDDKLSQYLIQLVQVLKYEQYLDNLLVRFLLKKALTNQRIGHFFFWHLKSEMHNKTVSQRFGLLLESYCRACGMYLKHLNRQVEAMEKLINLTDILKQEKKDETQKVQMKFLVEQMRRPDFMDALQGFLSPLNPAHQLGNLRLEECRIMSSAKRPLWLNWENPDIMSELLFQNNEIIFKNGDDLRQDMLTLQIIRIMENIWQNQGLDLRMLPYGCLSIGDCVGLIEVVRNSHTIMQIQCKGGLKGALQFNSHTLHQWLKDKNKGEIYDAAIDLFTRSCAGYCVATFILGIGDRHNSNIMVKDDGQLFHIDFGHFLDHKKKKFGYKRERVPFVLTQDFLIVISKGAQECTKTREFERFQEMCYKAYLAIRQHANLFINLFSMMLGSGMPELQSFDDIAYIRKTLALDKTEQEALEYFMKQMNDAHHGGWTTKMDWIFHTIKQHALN
Sequence of PI3K-α (P27986 whole entry partner, species assumed): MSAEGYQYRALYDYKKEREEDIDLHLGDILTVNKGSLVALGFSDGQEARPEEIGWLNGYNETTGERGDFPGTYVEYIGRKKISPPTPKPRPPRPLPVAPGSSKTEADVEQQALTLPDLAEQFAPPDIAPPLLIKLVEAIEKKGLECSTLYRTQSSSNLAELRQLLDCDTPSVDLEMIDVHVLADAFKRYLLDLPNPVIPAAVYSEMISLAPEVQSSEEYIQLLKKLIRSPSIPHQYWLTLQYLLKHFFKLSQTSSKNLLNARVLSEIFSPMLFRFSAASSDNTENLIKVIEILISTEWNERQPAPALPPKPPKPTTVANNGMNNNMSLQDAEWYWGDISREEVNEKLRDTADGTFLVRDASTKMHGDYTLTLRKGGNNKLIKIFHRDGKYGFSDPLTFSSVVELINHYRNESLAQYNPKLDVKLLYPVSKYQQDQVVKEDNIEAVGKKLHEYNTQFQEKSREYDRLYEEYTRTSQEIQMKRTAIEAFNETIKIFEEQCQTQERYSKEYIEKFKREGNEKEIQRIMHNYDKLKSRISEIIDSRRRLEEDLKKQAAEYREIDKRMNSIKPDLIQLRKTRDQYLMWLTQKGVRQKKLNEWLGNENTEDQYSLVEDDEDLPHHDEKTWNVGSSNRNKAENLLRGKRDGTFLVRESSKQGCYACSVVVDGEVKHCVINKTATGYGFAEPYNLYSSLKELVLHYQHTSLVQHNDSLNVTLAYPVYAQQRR
Sequence of PI3K-γ (P48736 whole entry, species assumed): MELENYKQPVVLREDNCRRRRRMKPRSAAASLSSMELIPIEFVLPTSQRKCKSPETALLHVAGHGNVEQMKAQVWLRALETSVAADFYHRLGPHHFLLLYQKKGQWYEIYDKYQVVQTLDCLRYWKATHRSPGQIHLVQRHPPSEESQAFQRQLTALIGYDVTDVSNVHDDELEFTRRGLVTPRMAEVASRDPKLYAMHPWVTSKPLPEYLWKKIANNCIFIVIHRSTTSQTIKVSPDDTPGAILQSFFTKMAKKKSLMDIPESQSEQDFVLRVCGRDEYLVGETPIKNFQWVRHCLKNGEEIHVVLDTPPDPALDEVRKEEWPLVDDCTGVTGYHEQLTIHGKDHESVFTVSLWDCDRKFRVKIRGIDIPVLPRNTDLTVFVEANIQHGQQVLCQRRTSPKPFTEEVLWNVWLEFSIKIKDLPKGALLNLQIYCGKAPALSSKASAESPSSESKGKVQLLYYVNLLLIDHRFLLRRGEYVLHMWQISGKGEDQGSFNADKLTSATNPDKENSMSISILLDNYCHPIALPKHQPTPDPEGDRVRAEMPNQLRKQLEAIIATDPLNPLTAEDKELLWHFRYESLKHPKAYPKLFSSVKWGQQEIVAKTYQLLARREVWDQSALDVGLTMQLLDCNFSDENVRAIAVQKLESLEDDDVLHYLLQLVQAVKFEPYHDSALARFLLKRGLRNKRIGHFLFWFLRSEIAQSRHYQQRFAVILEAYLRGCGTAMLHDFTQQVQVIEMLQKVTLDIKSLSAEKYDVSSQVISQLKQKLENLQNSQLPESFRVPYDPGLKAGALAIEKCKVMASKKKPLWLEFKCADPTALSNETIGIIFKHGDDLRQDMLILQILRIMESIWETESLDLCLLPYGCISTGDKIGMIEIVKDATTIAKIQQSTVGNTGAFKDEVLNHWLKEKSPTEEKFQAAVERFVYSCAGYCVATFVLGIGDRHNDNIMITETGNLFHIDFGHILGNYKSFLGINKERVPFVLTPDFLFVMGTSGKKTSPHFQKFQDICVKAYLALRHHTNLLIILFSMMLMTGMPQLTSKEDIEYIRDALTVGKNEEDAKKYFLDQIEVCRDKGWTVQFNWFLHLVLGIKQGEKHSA

A word on the IC50: it is the point on the concentration scale where inhibition reaches its midpoint. Regarding `O=C(Nc1ccc(-c2nc(N3CCOCC3)nc(N3C4CCC3COC4)n2)cc1)Nc1ccc(Cl)nc1` [Example 349, 1-(6-chloropyridin-3-yl)-3-{4-[4-morpholin-4-yl-6-(3-oxa-8-azabicyclo[3.2.1]oct-8-yl)-1,3,5-triazin-2-yl]phenyl}urea], the IC50 in assay [1] was 163 nM; in assay [1] (listed as 749), 164 nM; in assay [2], 2 nM; in assay [3] (PC3-mm2 cells), 81 nM; in assay [3], 81 nM; in assay [4] (MDA-MB-361, 72 h) it was 87 nM. For the same molecule, the IC50 in assay [5] came out at 59 nM.

For `CN(C)C1CCN(C(=O)c2ccc(NC(=O)Nc3ccc(-c4nc(C5CCOCC5)nc(N5CCOCC5)n4)cc3)cc2)CC1` [Example 350, 1-(4-{[4-(dimethylamino)piperidin-1-yl]carbonyl}phenyl)-3-{4-[4-morpholin-4-yl-6-(tetrahydro-2H-pyran-4-yl)-1,3,5-triazin-2-yl]phenyl}urea], the IC50 in assay [1] is 7 nM; in assay [1] (listed as 478), 6 nM; in assay [1] (listed as 510), 6.3 nM; in assay [2], 0.89 nM; in assay [3] (PC3-mm2 cells), 8.5 nM; in assay [3], 8.5 nM. Also, the IC50 in assay [4] (setting [6]) was under 3.08 nM; in assay [5], 1 nM; in assay [5] (listed as 478), 1.1 nM.

In the case of `Nc1ccc(NC(=O)Nc2ccc(-c3nc(N4CCOCC4)nc(N4CCOCC4)n3)cc2)cc1` [Example 351, 1-(4-aminophenyl)-3-[4-(4,6-dimorpholin-4-yl-1,3,5-triazin-2-yl)phenyl]urea], the IC50 in assay [1] was 16 nM; in assay [1] (listed as 497) it was 19 nM; in assay [2], 4.2 nM and 4.6 nM; in assay [3] (PC3-mm2 cells) it was 66 nM; in assay [3], 66 nM; in assay [4] (setting [6]), 50 nM. For the same molecule, the IC50 stood at 50 nM in assay [4] (MDA-MB-361, 72 h) and 3 nM in assay [5].

In the case of `CC(C)c1nc(-c2ccc(NC(=O)Nc3ccc(-c4cncnc4)cc3)cc2)nc(N2CCOCC2)n1` [Example 487, 1-{4-[4-(1-methylethyl)-6-morpholin-4-yl-1,3,5-triazin-2-yl]phenyl}-3-(4-pyrimidin-5-ylphenyl)urea], the IC50 in assay [1] is 27 nM; in assay [2] it was 1.8 nM; in assay [3] (PC3-mm2 cells), 339 nM; in assay [4] (72 h, MDA-MB-361 cells), 175 nM; in assay [5], 32.3 nM.

Turning to `CC(C)c1nc(-c2ccc(NC(=O)Nc3ccc(C(=O)N4CCN(C(C)C)CC4)cc3)cc2)nc(N2CCOCC2)n1` [Example 491, 1-{4-[4-(1-methylethyl)-6-morpholin-4-yl-1,3,5-triazin-2-yl]phenyl}-3-(4-{[4-(1-methylethyl)piperazin-1-yl]carbonyl}phenyl)urea], the concentration for half-maximal inhibition (IC50) in assay [1] stood at 17 nM; in assay [2] it was 1.1 nM; in assay [3] (PC3-mm2 cells), 35 nM; in assay [4] (setting [6]) it was 8 nM; in assay [5] it was 3.5 nM.

Consider `CC(C)(C)OC(=O)N1CC(Oc2nc(-c3ccc(NC(=O)Nc4ccncc4)cc3)nc(N3CCOCC3)n2)C1` [Example 494, tert-butyl 3-[(4-morpholin-4-yl-6-{4-[(pyridin-4-ylcarbamoyl)amino]phenyl}-1,3,5-triazin-2-yl)oxy]azetidine-1-carboxylate], for which the IC50 in assay [1] was found to be 104 nM; in assay [2], 4.2 nM; in assay [3] (PC3-mm2 cells), 276 nM; in assay [4] (72 h, MDA-MB-361 cells) it was 115 nM; in assay [5], 16.5 nM.

For `CN1CCN(C(=O)Nc2ccc(NC(=O)Nc3ccc(-c4nc(N5CCOCC5)nc(N5CCOCC5)n4)cc3)cc2)CC1` [Example 498, N-[4-({[4-(4,6-dimorpholin-4-yl-1,3,5-triazin-2-yl)phenyl]carbamoyl}amino)phenyl]-4-methylpiperazine-1-carboxamide], the IC50 in assay [1] was 2.5 nM; in assay [2], 2.35 nM; in assay [3] (PC3-mm2 cells), 16.5 nM; in assay [4] (setting [6]), 4 nM; in assay [5] it was under 1.7 nM.

Turning to `CN(C)C1CCN(C(=O)Nc2ccc(NC(=O)Nc3ccc(-c4nc(N5CCOCC5)nc(N5CCOCC5)n4)cc3)cc2)CC1` [Example 499, 4-(dimethylamino)-N-[4-({[4-(4,6-dimorpholin-4-yl-1,3,5-triazin-2-yl)phenyl]carbamoyl}amino)phenyl]piperidine-1-carboxamide], the IC50 is 4.5 nM in assay [1]; 2.2 nM in assay [2]; 31 nM in assay [3] (PC3-mm2 cells); 21 nM in assay [4] (setting [6]); under 1.9 nM in assay [5].

For the molecule `O=C(NCCN1CCCCC1)Nc1ccc(NC(=O)Nc2ccc(-c3nc(N4CCOCC4)nc(N4CCOCC4)n3)cc2)cc1` [Example 501, 1-[4-(4,6-dimorpholin-4-yl-1,3,5-triazin-2-yl)phenyl]-3-(4-{[(2-piperidin-1-ylethyl)carbamoyl]amino}phenyl)urea], the half-inhibitory concentration (IC50) in assay [1] is 6.5 nM; in assay [2], 0.69 nM; in assay [3] (PC3-mm2 cells), 41 nM; in assay [4] (72 h, MDA-MB-361 cells), under 31 nM; in assay [5], under 1.75 nM.

In the case of `CN1CCCN(C(=O)Nc2ccc(NC(=O)Nc3ccc(-c4nc(N5CCOCC5)nc(N5CCOCC5)n4)cc3)cc2)CC1` [Example 502, N-[4-({[4-(4,6-dimorpholin-4-yl-1,3,5-triazin-2-yl)phenyl]carbamoyl}amino)phenyl]-4-methyl-1,4-diazepane-1-carboxamide], the half-maximal inhibitory concentration (IC50) was determined as 6 nM in assay [1]; 1 nM in assay [2]; 11 nM in assay [3] (PC3-mm2 cells); 4 nM in assay [4] (72 h, MDA-MB-361 cells); 0.5 nM in assay [5].

Regarding `CN(C)C(=O)Nc1ccc(NC(=O)Nc2ccc(-c3nc(N4CCOCC4)nc(N4CCOCC4)n3)cc2)cc1` [Example 504, 1-{4-[(dimethylcarbamoyl)amino]phenyl}-3-[4-(4,6-dimorpholin-4-yl-1,3,5-triazin-2-yl)phenyl]urea], the half-maximal inhibitory concentration (IC50) in assay [1] worked out at 10 nM; in assay [2] it was 1.35 nM; in assay [3] (PC3-mm2 cells), 25.5 nM; in assay [4] (setting [6]), 22.5 nM; in assay [5], 1.8 nM.

Regarding `CN1CCN(C(=O)c2ccc(NC(=O)Nc3ccc(-c4nc(C5CCOCC5)nc(N5CCOCC5)n4)cc3)cc2)CC1` [Example 511, 1-{4-[(4-methylpiperazin-1-yl)carbonyl]phenyl}-3-{4-[4-morpholin-4-yl-6-(tetrahydro-2H-pyran-4-yl)-1,3,5-triazin-2-yl]phenyl}urea], the concentration for half-maximal inhibition (IC50) was 10.3 nM in assay [1]; 0.52 nM in assay [2]; 10 nM in assay [3] (PC3-mm2 cells); 2 nM in assay [4] (setting [6]); 2.3 nM in assay [5].

As for `CN(C)CCNC(=O)c1ccc(NC(=O)Nc2ccc(-c3nc(C4CCOCC4)nc(N4CCOCC4)n3)cc2)cc1` [Example 512, N-[2-(dimethylamino)ethyl]-4-[({4-[4-morpholin-4-yl-6-(tetrahydro-2H-pyran-4-yl)-1,3,5-triazin-2-yl]phenyl}carbamoyl)amino]benzamide], the IC50 in assay [1] was 10 nM; in assay [2], 0.12 nM; in assay [3] (PC3-mm2 cells), 8 nM; in assay [4] (72 h, MDA-MB-361 cells), 1 nM; in assay [5] it was under 1.9 nM.

Regarding `O=C(Nc1ccc(C(=O)NCCN2CCCC2)cc1)Nc1ccc(-c2nc(C3CCOCC3)nc(N3CCOCC3)n2)cc1` [Example 513, 4-[({4-[4-morpholin-4-yl-6-(tetrahydro-2H-pyran-4-yl)-1,3,5-triazin-2-yl]phenyl}carbamoyl)amino]-N-(2-pyrrolidin-1-ylethyl)benzamide], the half-maximal inhibitory concentration (IC50) in assay [1] was 12 nM; in assay [2], 0.12 nM; in assay [3] (PC3-mm2 cells) it was 13 nM; in assay [4] (72 h, MDA-MB-361 cells), 2 nM; in assay [5] it was under 2.4 nM.

Consider `O=C(Nc1ccc(C(=O)NCCN2CCCCC2)cc1)Nc1ccc(-c2nc(C3CCOCC3)nc(N3CCOCC3)n2)cc1` [Example 514, 4-[({4-[4-morpholin-4-yl-6-(tetrahydro-2H-pyran-4-yl)-1,3,5-triazin-2-yl]phenyl}carbamoyl)amino]-N-(2-piperidin-1-ylethyl)benzamide], for which the half-maximal inhibitory concentration (IC50) in assay [1] is 15 nM; in assay [2], 0.17 nM; in assay [3] (PC3-mm2 cells), 12 nM; in assay [4] (72 h, MDA-MB-361 cells), under 3.2 nM; in assay [5], 1.6 nM.

On to `CC(C)N1CCN(C(=O)c2ccc(NC(=O)Nc3ccc(-c4nc(N5CCOCC5)nc(N5CCOCC5)n4)cc3)cc2)CC1` [Example 515, 1-[4-(4,6-dimorpholin-4-yl-1,3,5-triazin-2-yl)phenyl]-3-(4-{[4-(1-methylethyl)piperazin-1-yl]carbonyl}phenyl)urea], for which the IC50 in assay [1] turned out to be 7.6 nM; in assay [2] it was 1.55 nM; in assay [3] (PC3-mm2 cells) it was 12 nM; in assay [4] (setting [6]) it was 3 nM; in assay [5], 0.4 nM.

With `CC(C)N1CCN(C(=O)c2ccc(NC(=O)Nc3ccc(-c4nc(O[C@H]5CCOC5)nc(N5CCOCC5)n4)cc3)cc2)CC1` [Example 522, 1-(4-{[4-(1-methylethyl)piperazin-1-yl]carbonyl}phenyl)-3-(4-{4-morpholin-4-yl-6-[(3S)-tetrahydrofuran-3-yloxy]-1,3,5-triazin-2-yl}phenyl)urea], the IC50 in assay [1] turned out to be 7.5 nM; in assay [2] it was 1.06 nM; in assay [3] (PC3-mm2 cells), 11 nM; in assay [4] (72 h, MDA-MB-361 cells), 3 nM; in assay [5] it was 1.4 nM.

The record behind these values is US20090304692A1, “TRIAZINE COMPOUNDS AS PI3 KINASE AND MTOR INHIBITORS” (Wyeth, priority 2008, published 2009).
